In patent publication US10829796B2, “Bacteria identification and antimicrobial susceptibility test” (priority 2015, dated 2020):

Tested on: Streptococcus uberis
Assay: Group D Streptococci identification, esculin/ferric citrate in TSB (blackening = growth), bacteria in milk
Format: cell-based
Settings: TSB containing 0.5% esculin and 0.25% ferric citrate + 80 uL spiked milk; 100 ug/ml aztreonam and/or 0.5 mg/mL phenol red
Method: By way of illustration, the same experiment was conducted as above, only this time using clinical milk samples obtained from a bovine animal suspect of being infected with mastitis.
However, Applicant has discovered that increased amounts of esculin and ferric citrate may be used in milk derived clinical samples. For example, at concentrations of at least 2% esculin and 1% ferric citrate, the growth of Streptococcus uberis is not inhibited.
Note, in the experiments above, the clinical sample tested was milk obtained from a bovine animal suspected of being infected by mastitis. If a non-milk clinical sample were to be tested, then inclusion of a stabilizing agent (e.g. milk in the form of a liquid or powder) would be required in order to suppress the growth inhibitory effect of esculin and ferric citrate at the higher concentrations used according to this invention.
Applicant further discovered that TSB containing 0.5% esculin and 0.25% ferric citrate and 80 uL of spiked Streptococcus uberis milk sample which also contained 100 ug/ml aztreonam concentration (antibiotic which has activity against many gram-bacteria such as E. coli) and/or in combination with 0.5 mg/mL phenol red led to easy detectable colour changes. No inhibition of Streptococcus uberis due to phenol red or aztreonam was detected.

SMILES: C[C@H]1[C@H](NC(=O)/C(=N\OC(C)(C)C(=O)O)c2csc(N)n2)C(=O)N1S(=O)(=O)O [aztreonam]
- Inhibition of Streptococcus uberis: No inhibition
